Reference: patent US9498387B2, “Absorbent article having bent sections” (UNICHARM CORPORATION, priority 2012, dated 2016)

Source text: As used herein, the term “solubility” in regard to water solubility includes cases where the sample completely dissolves in deionized water to form a homogeneous mixture, and cases where the sample is completely emulsified. As used herein, “completely” means that no mass of the sample remains in the deionized water.

Row | Water solubility [g] | SMILES
1 | <0.05 | CCCCCCCCCCCCOC(=O)CCCCCCCCCCC [2-18]
2 | <0.05 | CCCCCCCCCCCCCC(=O)OCCCCCCCCCCCC [2-19]
